What all share (assay type): cell-based
For assay [1], the system named is NCI-H1437 cells. In words: CCK-8 assay for cell proliferation and cytotoxicity, NCI-H1437. To be noted: Homo sapiens, CCK-8, 48 h, read-out: IC50 1437. On the procedure:
(§1) Three types of lung cells were seeded into 96-well plate at a density of 5 × 10^3 cells per well at logarithmic growth phase and cultured in 37 °C. […] After that, cell viability was determined according to the instruction of the CCK-8 assay. Next, 10 μL of CCK-8 solution was added to each well of the plate and incubate the plate for 1–4 h in the incubator. The absorbance was measured at 450 nm using a microplate reader (Bio-Tek). The percentage of viable cells was measured using the following formula where three independent experiments were performed: [(A450 sample − A450blank)/(A450 control − A450blank)] × 100%.
(In general: Tetrazolium assays rely on reduction of a dye to a coloured formazan, in cell work by metabolically active cells.)

Assay [2] relates to NCI-H1299 cells. In words: CCK-8 assay for cell proliferation and cytotoxicity, NCI-H1299. As to conditions: Homo sapiens, CCK-8, 48 h. The method, then:
as §1

For assay [3], the system named is A549 cells. Description: CCK-8 assay for cell proliferation and cytotoxicity, A549. As to conditions: Homo sapiens, CCK-8, 48 h. On the procedure: A549 cells were cultured in a humidified incubator at 37 °C with 5% CO2 in Ham’s F-12 K (PM150910, Procell) supplemented with 10% FBS and 1% Penicillin Streptomycin.
as §1

The source of these data is PMC11035632, “Discovery of gefitinib-1,2,3-triazole derivatives against lung cancer via inducing apoptosis and inhibiting the colony formation” (Scientific Reports, 2024).

Usually IC50 stands for the midpoint of a concentration-inhibition curve.

In the case of `COc1cc2ncnc(Nc3cccc(-c4cn(Cc5ccc(C(F)(F)F)cc5)nn4)c3)c2cc1OCCCN1CCOCC1` [Compound 7h], the IC50 in assay [1] amounted to 5.21 ± 0.3 µM; in assay [2], 4.89 ± 0.16 µM; in assay [3], 7.13 ± 1.21 µM.
On the same counts, the results for `COc1cc2ncnc(Nc3cccc(-c4cn(-c5ccccc5F)nn4)c3)c2cc1OCCCN1CCOCC1` [Compound 7q] are 7.21 ± 0.1 µM, 7.68 ± 0.11 µM and 9.03 ± 0.15 µM.
On to `COc1cc2ncnc(Nc3cccc(-c4cn(Cc5ccccc5[N+](=O)[O-])nn4)c3)c2cc1OCCCN1CCOCC1` [Compound 7e], for which the IC50 in assay [1] was 2.22 ± 0.18 µM; in assay [2], 5.81 ± 0.12 µM; in assay [3] it was 4.38 ± 0.07 µM.
On the same counts, the results for `COc1cc2ncnc(Nc3cccc(-c4cn(Cc5ccc(Br)cc5F)nn4)c3)c2cc1OCCCN1CCOCC1` [Compound 7b] are 3.65 ± 0.04 µM, 4.6 ± 0.16 µM and 5.28 ± 0.2 µM.
Turning to `COc1cc2ncnc(Nc3cccc(-c4cn(Cc5ccccc5C)nn4)c3)c2cc1OCCCN1CCOCC1` [Compound 7l], the IC50 in assay [1] was found to be 0.84 ± 0.1 µM; in assay [2], 4.92 ± 0.49 µM; in assay [3], 6.59 ± 0.2 µM.
For the molecule `COc1cccc(-n2cc(-c3cccc(Nc4ncnc5cc(OC)c(OCCCN6CCOCC6)cc45)c3)nn2)c1` [Compound 7r], the IC50 in assay [1] was determined as 6.21 ± 0.23 µM; in assay [2], 9.35 ± 0.31 µM; in assay [3] it was 12.9 ± 0.25 µM.
On the same counts, the results for `COc1cc2ncnc(Nc3cccc(-c4cn(-c5cccc([N+](=O)[O-])c5)nn4)c3)c2cc1OCCCN1CCOCC1` [Compound 7s] are 8.21 ± 0.13 µM, 9.68 ± 0.21 µM and 11 ± 0.25 µM.
On the same counts, the results for `COc1cc2ncnc(Nc3cccc(-c4cn(Cc5cc(F)ccc5C#N)nn4)c3)c2cc1OCCCN1CCOCC1` [Compound 7n] are 4.67 ± 0.28 µM, 6.02 ± 0.24 µM and 3.78 ± 0.03 µM.
In the case of `COc1cc2ncnc(Nc3cccc(-c4cn(Cc5cccc(I)c5)nn4)c3)c2cc1OCCCN1CCOCC1` [Compound 7p], the values for the IC50 in assay [1], in assay [2] and in assay [3] were 4.93 ± 0.14 µM, 5.04 ± 0.33 µM and 8.5 ± 0.34 µM, respectively.
As to `COc1cc2ncnc(Nc3cccc(-c4cn(-c5ccc([N+](=O)[O-])cc5OC)nn4)c3)c2cc1OCCCN1CCOCC1` [Compound 7t], the IC50 amounted to 14.93 ± 0.14 µM in assay [1], 13 ± 0.23 µM in assay [2] and 13.5 ± 0.33 µM in assay [3].
On the same counts, the results for `COc1cc2ncnc(Nc3cccc(-c4cn(Cc5ccc(Cl)cc5)nn4)c3)c2cc1OCCCN1CCOCC1` [Compound 7k] are 2.9 ± 0.23 µM, 6.9 ± 0.23 µM and 4.91 ± 0.52 µM.
On the same counts, the results for `COc1cc2ncnc(Nc3cccc(-c4cn(Cc5ccccc5F)nn4)c3)c2cc1OCCCN1CCOCC1` [Compound 7g, N-(3-(1-(2-fluorobenzyl)-1H-1,2,3-triazol-4-yl)phenyl)-7-methoxy-6-(3-morpholinopropoxy)quinazolin-4-amine] are 1.66 ± 0.18 µM, 5.97 ± 0.36 µM and 6.23 ± 0.12 µM.
For `COc1cc2ncnc(Nc3cccc(-c4cn(Cc5c(F)cccc5Cl)nn4)c3)c2cc1OCCCN1CCOCC1` [Compound 7d], the IC50 is 4.83 ± 0.16 µM in assay [1], 6.04 ± 0.41 µM in assay [2] and 8.5 ± 0.41 µM in assay [3].
On to `COc1cc2ncnc(Nc3cccc(-c4cn(Cc5ccc(Cl)c(F)c5)nn4)c3)c2cc1OCCCN1CCOCC1` [Compound 7c], for which the IC50 in assay [1] was determined as 3.08 ± 0.47 µM; in assay [2] it was 6.24 ± 0.32 µM; in assay [3] it was 5.68 ± 0.14 µM.
With `COc1cc2ncnc(Nc3cccc(-c4cn(Cc5cc(C)cc(C)c5)nn4)c3)c2cc1OCCCN1CCOCC1` [Compound 7m], the values for the 50% inhibitory concentration (IC50) in assay [1], in assay [2] and in assay [3] were 3.72 ± 0.17 µM, 4.48 ± 0.41 µM and 6.54 ± 0.21 µM, respectively.
On the same counts, the results for `COc1cc2ncnc(Nc3cccc(-c4cn(Cc5ccc(I)cc5)nn4)c3)c2cc1OCCCN1CCOCC1` [Compound 7i] are 4.69 ± 0.23 µM, 5.6 ± 0.09 µM and 5.76 ± 0.62 µM.
As for `COc1cc2ncnc(Nc3cccc(-c4cn(Cc5ccc([N+](=O)[O-])cc5)nn4)c3)c2cc1OCCCN1CCOCC1` [Compound 7f], the IC50 in assay [1] came to 3.95 ± 0.45 µM; in assay [2], 5.65 ± 0.16 µM; in assay [3] it was 16.4 ± 1.07 µM.
On the same counts, the results for `COc1cc(Cn2cc(-c3cccc(Nc4ncnc5cc(OC)c(OCCCN6CCOCC6)cc45)c3)nn2)cc(OC)c1` [Compound 7o] are 5.21 ± 0.13 µM, 6.78 ± 0.41 µM and 12 ± 0.15 µM.
